What all share (set-up): key: –: no effect observed up to the highest test concentration
In one assay the test system is p53. Kind of assay: p53 CALUX assay. It is filed as cell-based, human. As to conditions: cell signaling pathway assay, 24 h exposure. The text has this: (§1) Six of the CALUX assays (TCF through p53) detect activation of several cellular signaling pathways, which are indicative of general stress and acute toxicity, but also a range of more specific types of toxicity, including reproductive toxicity. […]
(§2) DCM ≥99.5%, chloroform ≥99.5%, DMSO ≥99.0% were purchased from VWR. […]
(§3) Polyarylethersulfone of 55,000 Da were obtained from INGE.BASF, Germany. The CALUX cell lines have been described previously.[1] They are based on human U2-OS cells (ATCC, HTB-96) stably transfected with an expression construct for the full-length human receptor under investigation, and a reporter construct consisting of multimerized responsive elements for the cognate receptor coupled to a minimal promoter element (TATA) and a luciferase gene. Cells were maintained as described previously,[2] using cell culture media and supplements from Fisher Scientific as described in the experimental procedures section. […]
(§4) In vitro reporter gene assays
(§5) The automated CALUX assays were carried out similarly as described earlier,[12] with some adaptations. In brief, the assay was performed in CO2 independent medium (Fisher Scientific, […]
(§6) supplement (Fisher Scientific, 11574466), 10 U/mL penicillin and 10 µg/mL streptomycin. A cell suspension in assay medium was made of 1 × 10^5cells/mL, and white 384-wells plates were seeded with 30 µl cell suspension/well. After 24 h, exposure medium was prepared. A dilution series in 0.5log unit increments of each test compound (in DMSO) was added to a 96-wells plate containing assay medium (2% v/v). Of this exposure mixture, 30 µl was added to the assay plates containing the CALUX cells, resulting in a final DMSO concentration of 1%. Additionally, DMSO blanks and a full dose response curve of the relevant reference compound were included on each plate. All samples were tested in triplicate. The preparation of the compound dilution series as well as the exposure of the cells were performed on a Hamilton StarLET liquid handling robot coupled to a Cytomat incubator.
(§7) Directly after exposure, plates were sealed with non-breathing plate seals (Plate sealer, easy seal transparent; Greiner-Bio-One, 676001). After 24 h the exposure medium was removed using an EL406 washer-dispenser (BioTek) and 10 µl/well triton lysisbuffer was added by the EL406.
(§8) Subsequently, the luciferase signal was measured in a luminometer (InfinitePro coupled to a Connect Stacker, both TECAN). In order to be able to detect receptor antagonism, several assays were also performed in antagonistic mode. The assay procedure was as described above, with the only exception that the EC50 concentration of the reference agonist was present during the exposure.
(§9) The luminometer data was analysed as follows; the average of the triplicate wells was determined, and the average blank (DMSO) value was subtracted. For receptor-based assays the maximum response elicited by the reference compound was set to 100% (full receptor- or pathway activation), and the other values were scaled accordingly. GraphPad Prism was used to fit a sigmoidal curve through the data (four parameters, variable slope). […] For antagonist- and cytotoxicity experiments, PC20 values were determined instead, which was defined as the concentration where the test compound causes a 20% decrease in the basal signal, which was […]
(§10) curve, the signal induction above background (DMSO) was determined, and the concentration where the compound elicited a 1.5-fold increase above background was used as LEC.

A further assay deals with T1, PR (Homo sapiens, UniProt P06401).
T1 construct: expression construct for the full-length human receptor under investigation; expressed in transfected cells; host or cells: human U2-OS cells (ATCC HTB-96), stably transfected
T1 sequence (P06401 1-933): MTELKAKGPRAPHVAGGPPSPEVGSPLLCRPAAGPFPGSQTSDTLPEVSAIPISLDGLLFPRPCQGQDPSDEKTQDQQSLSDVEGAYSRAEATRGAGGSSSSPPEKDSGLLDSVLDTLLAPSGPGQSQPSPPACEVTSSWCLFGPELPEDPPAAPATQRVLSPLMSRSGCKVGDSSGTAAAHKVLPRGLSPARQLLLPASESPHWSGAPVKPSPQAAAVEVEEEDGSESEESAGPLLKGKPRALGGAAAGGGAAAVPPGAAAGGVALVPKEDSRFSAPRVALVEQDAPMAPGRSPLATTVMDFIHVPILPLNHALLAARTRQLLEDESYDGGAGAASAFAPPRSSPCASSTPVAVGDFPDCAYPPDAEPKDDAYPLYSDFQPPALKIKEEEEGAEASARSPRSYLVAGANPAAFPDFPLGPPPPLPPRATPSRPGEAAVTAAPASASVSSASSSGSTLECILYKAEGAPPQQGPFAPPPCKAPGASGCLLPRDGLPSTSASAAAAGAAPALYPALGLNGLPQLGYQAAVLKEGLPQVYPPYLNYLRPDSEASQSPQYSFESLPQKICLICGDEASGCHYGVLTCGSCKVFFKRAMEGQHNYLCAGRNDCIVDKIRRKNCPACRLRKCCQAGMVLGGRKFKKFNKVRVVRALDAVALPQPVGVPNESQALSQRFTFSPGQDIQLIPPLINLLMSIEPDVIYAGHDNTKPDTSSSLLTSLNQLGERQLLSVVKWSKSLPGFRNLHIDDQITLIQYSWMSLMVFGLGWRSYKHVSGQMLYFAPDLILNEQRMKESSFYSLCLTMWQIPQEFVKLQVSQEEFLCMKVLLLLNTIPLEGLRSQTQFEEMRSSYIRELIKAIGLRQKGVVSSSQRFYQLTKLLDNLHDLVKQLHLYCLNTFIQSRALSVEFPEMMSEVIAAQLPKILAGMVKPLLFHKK
Kind of assay: PR-anti CALUX reporter gene assay (antagonistic mode). It is filed as cell-based. The note with it: PC20, 24 h exposure.
Source text: as §3, with “99.8% (anhydrous), 4-nitroaniline ≥99.0%, 1-octanol ≥99.0%, diglyme ≥99.0%, DMSO-d6 (99.8% D) and chloroform-d (99.8% D) were purchased from Sigma-Aldrich. Toluene ≥99.0%, hexane ≥99.5%, DCM ≥99.5%, chloroform ≥99.5%, DMSO ≥99.0% were purchased from VWR. N,N-diethyl-4-nitroaniline ≥98.0% was purchased from Alfa Aeser. Cyrene was supplied by Circa group. N-butylpyrrolidinone was supplied by Eastman chemicals. N,N-dimethylformamide 99.9% and N,N-dimethylacetamide 99.9% were purchased from Fischer. The flakes of Ultrason® E3020 P Polyarylethersulfone” for “Polyarylethersulfone”
as §4, §5, §6, §7, §8
The luminometer data was analysed as follows; the average of the triplicate wells was determined, and the average blank (DMSO) value was subtracted. […] For antagonist- and cytotoxicity experiments, PC20 values were determined instead, which was defined as the concentration where the test compound causes a 20% decrease in the basal signal, which was […]
as §10

The next assay deals with p21. Kind of assay: p21 CALUX assay (DNA damage response). As to conditions: cell signaling pathway assay, 24 h exposure. It is filed as cell-based, human.
Source text: as §1, §2, §3, §4, §5, §6, §7, §8, §9, §10

Turning to `CCCCN(CC)C(=O)CCC(=O)N(CC)CCCC` [EBSA, N,N′‐diethyl‐N,N′‐dibutylsuccindiamide], the “LEC p53” value with p53 was “–”. The “LEC PR‐anti” value on PR was “–”. Moreover, in the assay on p21, the “LEC p21” value is “–”.
Turning to `CCCCN(CCCC)C(=O)CCC(=O)N(CCCC)CCCC` [TBSA, N,N,N′,N′‐tetrabutylsuccindiamide], in the assay on p53, the “LEC p53” value was “–”. In addition, on PR, the “LEC PR‐anti” value is listed as “–”. In addition, the “LEC p21” value with p21 is recorded as “–”.
`CCCCN(C)C(=O)CCC(=O)N(C)CCCC` [MBSA, N,N′‐dimethyl‐N,N′‐dibutylsuccindiamide]: the “LEC p53” value in the assay with p53 is “–”. Besides, the “LEC PR‐anti” value on PR is given as “–”. Besides, the “LEC p21” value in the assay on p21 is reported as “–”.
With `CCCCN1CCCC1=O` [NBP, N‐Butylpyrrolidinone, reference compound], the “LEC p53” value in the assay with p53 is “–”. Moreover, the “LEC PR‐anti” value at PR is reported as “–”. In addition, the “LEC p21” value with p21 is “–”.
On to `CN1CCCC1=O` [NMP, N‐methyl‐2‐pyrrolidone, reference compound], for which the “LEC p53” value in the assay on p53 is on record as “–”. The “LEC PR‐anti” value on PR is given as “–”. Also, in the assay with p21, the “LEC p21” value is −2.0 Log M.

The record behind these values is PMC7318222, “A Family of Water‐Immiscible, Dipolar Aprotic, Diamide Solvents from Succinic Acid” (Chemsuschem, 2020).
